Measured values published in US20250320496A1, “MODULATION OF ABCB11 GENE TRANSCRIPTION USING ANTISENSE OLIGONUCLEOTIDES TARGETING REGULATORY RNAS” (CAMP4 Therapeutics Corporation, priority 2022, published 2025).
Strand notation (5' to 3'): a small letter for the sugar, then the base; units joined by * are phosphorothioate-linked, units joined directly phosphodiester-linked; [ ] holds rarer units or linkages, { } end groups; capitals alone tell only the bases. e = 2'-O-(2-methoxyethyl) (MOE); l = locked nucleic acid (LNA); [5mC] = 5-methylcytosine

Assays:
[1] = test system: human ABCB11 mRNA; test: ASO treatment of primary human hepatocytes (PHH), ABCB11 mRNA by RT-qPCR normalized to B2M; type: cell-based; design: ABCB11 mRNA, dose titration: unit of the concentration uncertain; conditions: for ABCB11 mRNA expression, dose response / ABCB11 mRNA, dose titration: PHHs; for ABCB11 mRNA expression, dose response: Day 4 after ASO treatment (FIG. 5A); for ABCB11 mRNA, dose titration: CO-3986 and CO-4529 tested at 2.5 (unit uncertain), 5 μM, and 10 μM; for ABCB11 FC mRNA (5 μM ASO vs. untreated): 5 μM ASO with PO-modifications, normalized to untreated hepatocytes
Method in brief: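 Plated primary human hepatocytes were treated 4 h post-thaw with ASO (e.g., 1.25–10 μM; initial screen 5 μM) in medium containing 0.3 mg/ml Matrigel for 72 hrs. Total RNA was reverse-transcribed and ABCB11 mRNA measured by Taqman RT-qPCR, normalized to B2M, with fold change versus untreated PHHs.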

[2] = test system: CYP7A1 mRNA; test: ASO treatment of primary human hepatocytes (PHH), CYP7A1 mRNA by RT-qPCR normalized to B2M; type: cell-based; conditions: for CYP7A1 mRNA levels, dose response: PHHs, Day 4, relative to B2M (FIG. 5B); for expression of CYP7A1 mRNA, dose response: PHHs (FIG. 3B)
Method: Primary human hepatocytes (PHH) were thawed using Lonza Human Cryopreserved Hepatocyte Thawing Medium and plated in 96-well collagen-coated plates (5.5-6.0×10^4 cells per well). Four hours later, the media was replaced with sterile-filtered QualGro™ Hepatocyte Culture Medium (BioIVT) containing antibiotic supplement, 0.3 mg/ml Matrigel® matrix (Corning®), and ASO at the desired concentration (e.g., 1.25 μM, 2.5 μM, 5 μM, or 10 μM). […] Plates were frozen at-80° C. during cell lysis. After thawing, total RNA was isolated using the Qiagen RNEasy kit as instructed by manufacturer. cDNA (random-primed) was synthesized from 10 μl of RNA using the LifeTech High Capacity cDNA Reverse Transcription kit. 2 μl of cDNA was used for reverse transcription-quantitative PCR (RT-qPCR) analyses using standard Taqman” reagents from Applied Biosystems™ to measure ABCB11 and CYP7A1 gene expression. Gene expression data was normalized to the housekeeper gene, beta-2-microglobulin (B2M).
ASOs targeting ABCB11 regRNA enhance bile acid efflux in vitro. Levels of cholesterol 7 alpha-hydroxylase (CYP7A1) mRNA (or the enzymatic activity of its protein) can be used to track changes in bile acid synthesis in the liver since the CYP7A1 protein is the first and rate-limiting step in the conversion of cholesterol to bile acids (see, e.g., Chiang and Ferrel (2020) Liver Res. 4 (2): 47-63). […] Conversely, when bile acid levels reach high levels, this gene is actively down regulated. These changes are mediated by farnesoid X receptor (FXR), a sensor of bile acid levels, and the master regulator of intracellular bile acid concentrations. CYP7A1 mRNA can therefore be used as a surrogate for monitoring changes in hepatic bile acids in response to ASO treatment. Accordingly, an ASO that successfully increases ABCB11 expression would be expected to promote increased bile acid efflux, thus reducing bile acid levels in the cell. In a wild-type (non-disease) setting, this reduction promotes a compensatory increase in CYP7A1 to restore normal levels.

[3] = PHHs treated for two days, collected Day 2 to Day 7, result on Day 4

Substance	ABCB11 FC mRNA (5 μM ASO vs. untreated) ([1]; primary human hepatocytes) [fold change]	other results
CO-4513: ASO targeting a downstream regRNA from enhancer RR62_v2 (antisense eG*eT*eG*eA*eG*eG*e[5mC]*eA*eT*e[5mC]*eA*eG*eG*eT*eA*eA*eG*eT*eT*e[5mC])	–	ABCB11 mRNA expression, dose response [1]: dose-responsive increase; ABCB11 mRNA FC (5 μM ASO vs. UNT) ([1]; primary human hepatocytes, 5 μM ASO, normalized to untreated PHHs (UNT)): 1.122 fold change; CYP7A1 mRNA levels, dose response [2]: dose-responsive increases
CO-4535: ASO targeting eRNA RR64 (RR64_v2) of human ABCB11 (antisense eT*eG*eG*e[5mC]*eG*eT*eT*eA*eT*eT*eA*eA*eT*eT*e[5mC]*eT*eA*e[5mC]*eA*eG)	–	ABCB11 mRNA, time course [1, 3]: strong ABCB11 and CYP7A1 mRNA upregulation; ABCB11 mRNA expression, dose response [1]: dose-responsive increase; ABCB11 mRNA, dose titration [1]: dose-dependent increase; expression of CYP7A1 mRNA, dose response [2]: increased expression of CYP7A1 mRNA in a dose-dependent manner; CYP7A1 mRNA, time course [2, 3]: strong ABCB11 and CYP7A1 mRNA upregulation; CYP7A1 mRNA levels, dose response [2]: dose-responsive increases
CO-4556: ASO targeting eRNA RR74 (RR74_v1) of human ABCB11 (antisense eG*eA*eA*eG*eG*eA*e[5mC]*eA*e[5mC]*eA*eA*eT*eT*eT*e[5mC]*eT*eG*eT*eA*eG)	–	ABCB11 mRNA expression, dose response [1]: dose-responsive increase; ABCB11 mRNA, dose titration [1]: dose-dependent increase; expression of CYP7A1 mRNA, dose response [2]: increased expression of CYP7A1 mRNA in a dose-dependent manner; CYP7A1 mRNA levels, dose response [2]: dose-responsive increases
CO-11236 (antisense eG*eT*eGeGlAeGe[5mC]*eA*eA*lA*e[5mC]*eT*eA*eGlGe[5mC]eAe[5mC]*eT*eG)	1.60	–
CO-11237 (antisense eG*eTeGeGlAeGe[5mC]*eA*eA*lA*e[5mC]*eT*eA*eGlGe[5mC]eAe[5mC]eT*eG)	1.56	–
CO-11238 (antisense eG*eT*eGeG*lA*eG*e[5mC]*eAeA*lA*e[5mC]*eT*eAeG*lG*e[5mC]*eA*e[5mC]eT*eG)	1.26	–
CO-11239 (antisense eG*eT*eG*eGlA*eG*e[5mC]*eAeA*lA*e[5mC]*eTeA*eG*lG*e[5mC]eA*e[5mC]*eT*eG)	1.53	–
CO-11240 (antisense eG*eT*eG*eG*lAeG*e[5mC]*eA*eAlA*e[5mC]*eT*eAeG*lG*e[5mC]*eAe[5mC]*eT*eG)	1.31	–
CO-11241 (antisense eG*eTeG*eG*lA*eGe[5mC]*eA*eA*lAe[5mC]*eT*eA*eGlG*e[5mC]*eA*e[5mC]eT*eG)	1.71	–
CO-11242 (antisense eG*eTeG*eG*lAeG*e[5mC]*eAeA*lA*e[5mC]eT*eA*eGlG*e[5mC]*eAe[5mC]*eT*eG)	1.49	–
CO-11243 (antisense eG*eT*eGeG*lA*eGe[5mC]*eA*eAlA*e[5mC]*eTeA*eG*lGe[5mC]*eA*e[5mC]eT*eG)	1.71	–
CO-11244 (antisense eG*eT*eGeG*lAeG*e[5mC]eA*eAlA*e[5mC]eT*eAeG*lGe[5mC]*eAe[5mC]*eT*eG)	1.29	–
CO-11245 (antisense eG*eTeG*eGlA*eGe[5mC]*eAeA*lAe[5mC]*eTeA*eGlG*e[5mC]eA*e[5mC]eT*eG)	1.59	–
CO-12745 (antisense eG*eT*eG*eA*eGeGe[5mC]*eA*eT*e[5mC]*eA*eG*eG*eTeAeA*eG*eT*eT*e[5mC])	0.92	–
CO-12746 (antisense eG*eT*eG*eAeGeGe[5mC]*eA*eT*e[5mC]*eA*eG*eG*eTeAeAeG*eT*eT*e[5mC])	1.09	–
CO-12747 (antisense eG*eT*eGeAeGeGe[5mC]*eA*eT*e[5mC]*eA*eG*eG*eTeAeAeGeT*eT*e[5mC])	0.97	–
CO-12748 (antisense eG*eTeGeAeGeGe[5mC]*eA*eT*e[5mC]*eA*eG*eG*eTeAeAeGeTeT*e[5mC])	0.91	–
CO-12749 (antisense eG*eT*eGeA*eG*eG*e[5mC]*eAeT*e[5mC]*eA*eG*eGeT*eA*eA*eG*eTeT*e[5mC])	0.95	–
CO-12750 (antisense eG*eT*eG*eAeG*eG*e[5mC]*eAeT*e[5mC]*eA*eGeG*eT*eA*eAeG*eT*eT*e[5mC])	1.39	–
CO-12751 (antisense eG*eT*eG*eA*eGeG*e[5mC]*eA*eTe[5mC]*eA*eG*eGeT*eA*eA*eGeT*eT*e[5mC])	0.93	–
CO-12752 (antisense eG*eTeG*eA*eG*eGe[5mC]*eA*eT*e[5mC]eA*eG*eG*eTeA*eA*eG*eTeT*e[5mC])	0.99	–
CO-12753 (antisense eG*eTeG*eA*eGeG*e[5mC]*eAeT*e[5mC]*eAeG*eG*eTeA*eA*eGeT*eT*e[5mC])	1.03	–
CO-12754 (antisense eG*eT*eGeA*eG*eGe[5mC]*eA*eTe[5mC]*eA*eGeG*eT*eAeA*eG*eTeT*e[5mC])	1.04	–
CO-12755 (antisense eG*eT*eGeA*eGeG*e[5mC]eA*eTe[5mC]*eAeG*eGeT*eAeA*eGeT*eT*e[5mC])	0.99	–
CO-12756 (antisense eG*eTeG*eAeG*eGe[5mC]*eAeT*e[5mC]eA*eGeG*eTeA*eAeG*eTeT*e[5mC])	1.33	–
